{"source": "patent US20170058282A1", "about": "(priority 2015, published 2017)", "origin": "cited, not measured here", "test_system": "heme sensor system HssRS (histidine kinase HssS / response regulator HssR)", "conditions": "natural HssRS; cited from earlier work"}
{"smiles": "C=CC1=C(C)c2cc3[nH]c(cc4nc(cc5[nH]c(cc1n2)c(C)c5CCC(=O)O)C(CCC(=O)O)=C4C)c(C)c3C=C.[Fe+2]", "note": "[heme]", "values": [{"measurement": "responsive concentrations of heme", "value": "sub-μM"}]}
